Laboratory results published in ChEMBL document CHEMBL4351009, “hERG optimizations of IMB1603, discovery of alternative benzothiazinones as new antitubercular agents” (Eur J Med Chem, 2019).
In brackets after ≈: the same amount, converted by molar mass.

Experiments:
[1] = system: Mycobacterium tuberculosis; experiment: Antimycobacterial activity against multidrug resistance Mycobacterium tuberculosis 16995 clinical isolate assessed as reduction in bacterial cell viability incubated for 7 days by microplate alamar blue assay; type: functional; details: Mycobacterium tuberculosis, 16995, 168 h
[2] = system: Mycobacterium tuberculosis; experiment: Antimycobacterial activity against multidrug resistance Mycobacterium tuberculosis 16883 clinical isolate assessed as reduction in bacterial cell viability incubated for 7 days by microplate alamar blue assay; type: functional; details: Mycobacterium tuberculosis, 16883, 168 h

Row | Compound | MIC [1] [µM] | MIC [2] [µM]
1 | O=c1nc(N2CC3CCC2CN3Cc2ccc(F)cc2)sc2c([N+](=O)[O-])cc(C(F)(F)F)cc12 (stereo not given) | < 0.035 | 0.062 (≈ 0.0307 µg/mL)
2 | O=c1nc(N2CCC3(CCN(c4ccc(F)cc4)C3)CC2)sc2c([N+](=O)[O-])cc(C(F)(F)F)cc12 | < 0.035 | < 0.035
3 | NNC(=O)c1ccncc1 [ISONIAZID] | > 40 | > 40
4 | O=c1nc(N2CCN(CC3CCCCC3)CC2)sc2c([N+](=O)[O-])cc(C(F)(F)F)cc12 [MACOZINONE] | < 0.035 | < 0.035
5 | CO[C@H]1/C=C/O[C@@]2(C)Oc3c(C)c(O)c4c(O)c(c(/C=N/N5CCN(C)CC5)c(O)c4c3C2=O)NC(=O)/C(C)=C\C=C\[C@H](C)[C@H](O)[C@@H](C)[C@@H](O)[C@@H](C)[C@H](OC(C)=O)[C@@H]1C [RIFAMPIN] | > 40 | > 40
